Columns and labels:
[1] = test system: Salmonella typhimurium Strain TA98; assay: Ames test for mutagenity (OECD 471); assay type: cell-based
Excerpt: Due to the availability of different grades of Solvent Orange 63 for the corrosion tests, we decided to submit them all to an Ames test, one of several genotoxicity assays for the assessment of product safety.
The Ames test is a screening for the mutagenic effect of substances on microorganisms, cells and tissue cultures and therefore their potential carcinogenic effect. This relies on the observation that the most common cause of cancer is somatic mutations brought about by DNA damage. Chemicals that damage bacterial DNA, and induce mutations, are therefore likely to cause mutations in mammalian cells. Assay is done using bacteria, which gives fast and relatively cheap results and avoids the controversial tests on animals.
The strains used are among those recommended by OECD 471: Salmonella typhimurium and Escherichia coli.
Solvent Orange 63 as prepared above was subjected to Ames test for mutagenity. The strains used are among those recommended by OECD 471: Salmonella typhimurium and E. coli.

[2] = LLNA test for skin sensitization (OECD Guideline 429); assay type: in vivo; conditions: OECD Guideline 429, suitable vehicle, for example acetone:olive oil (4+1)
Excerpt: We further submitted the same samples to a LLNA screening, in order to assess the potential skin sensitization properties of the product.
The Local Lymph Node Assay (LLNA) is an alternative to the guinea pig sensitization test which is employed by the pharmaceutical, chemical, consumer product and cosmetic industries to identify and characterize substances with immunotoxic properties.
Solvent Orange 63 as prepared above was subjected to LLNA test for skin sensitization, according to OECD Guideline 429 in suitable vehicle, for example acetone:olive oil (4+1).

[3] = in the presence of S9 mix (metabolic activation)

## O=c1c2ccccc2c2ccc3sc4ccccc4c4ccc1c2c34 [Solvent Orange 63 from Sample C, C.I. Solvent Orange 63]
[1]; [3]
  mutagenic to Salmonella typhimurium Strain TA98: not mutagenic
[2]
  skin sensitization (LLNA): skin sensitizers

## O=c1c2ccccc2c2ccc3sc4ccccc4c4ccc1c2c34 [Solvent Orange 63 from Sample D, C.I. Solvent Orange 63]
[1]; with or without liver microsomal activation (S9 mix)
  mutagenic to Salmonella typhimurium Strain TA98: mutagenic
[2]
  skin sensitization (LLNA): skin sensitizers

## O=c1c2ccccc2c2ccc3sc4ccccc4c4ccc1c2c34 [Solvent Orange 63 from Sample A, C.I. Solvent Orange 63]
[1]; [3]
  mutagenic to Salmonella typhimurium Strain TA98: not mutagenic
[2]
  skin sensitization (LLNA): not skin sensitizers

## O=c1c2ccccc2c2ccc3sc4ccccc4c4ccc1c2c34 [Solvent Orange 63 from Sample B, C.I. Solvent Orange 63]
[1]; [3]
  mutagenic to Salmonella typhimurium Strain TA98: not mutagenic
[2]
  skin sensitization (LLNA): not skin sensitizers
